Values of other authors, collected in patent publication CN114917233A, “一种包含核苷类似物的药物组合物及其制备方法和应用” (Suzhou Vigonvita Life Sciences Co Ltd, priority 2022, dated 2022).

Assays:
[1] = tested on: SARS-CoV-2
[2] = tested on: SARS-CoV-2; conditions: 5 μM, in vitro

Structure (SMILES) | inhibition of SARS-CoV-2 replication (in words) [1] | inhibition of virus replication compared with RDV (in words) ([1]; versus RDV) | oral bioavailability (in words) | replication inhibition rate [2] [%]
N#C[C@@]1(c2ccc3c(N)ncnn23)O[C@H](CO)[C@@H](O)[C@H]1O [GS-441524] | 具有抑制作用 | 更强的病毒复制抑制作用 | 低 | 
CCC(CC)COC(=O)[C@H](C)N[P@](=O)(OC[C@H]1O[C@@](C#N)(c2ccc3c(N)ncnn23)[C@H](O)[C@@H]1O)Oc1ccccc1 [RDV] | 具有抑制作用 |  |  | 
CC(C)C(=O)OC[C@H]1O[C@@](C#N)(c2ccc3c(N)ncnn23)[C@H](OC(=O)C(C)C)[C@@H]1OC(=O)C(C)C [式I化合物, (2R,3R,4R,5R)-2-(4-氨基吡咯并[2,1-f][1,2,4]三嗪-7-基)-2-氰基-5-((异丁酰氧基)甲基)四氢呋喃-3,4-二基双(2-甲基丙酸酯)] |  |  |  | 99
